Source: patent US5639734A, “Disaccharide inflammation inhibitors and uses thereof” (priority 1994, dated 1997)
“Also recorded” adds a separate entry of the source.

Assays:
[1] = tested on: sialyl Lewis X (sLe^x) ligands, HL-60 cells; conditions: background; cited from earlier work
[2] = tested on: O-linked glycoprotein synthesis; conditions: background; cited from earlier work
[3] = tested on: pgsA-745 cells (xylosyltransferase deficient Chinese hamster ovary cells); assay: Priming of [35S]glycosaminoglycan chains in xylosyltransferase-deficient CHO mutant pgsA-745 cells; format: cell-based; conditions: FIG. 3; 5 hours at 37° C.; up to 500 μM
Description: Various compounds at the indicated concentrations were provided to confluent Chinese hamster ovary cells in a 96 well plate. Glycosaminoglycan synthesis was measured by autoradiography of [^35 S]-glycosaminoglycan collected on a postively charged nylon membrane. 1: Xylβ-0-2-naphthol; 2: Xylβ1→6Gal-0-2-naphthol; 3: Xylβ1→6Gal(Me)-0-2-naphthol; 4: Xylβ1→6Gal(Me)2 -0-2-naphthol; 5: Xylβ1→6Gal(Me)3 -0-2-naphthol; 6: Xyl(Ac)3 β-0-2-naphthol; 7:Xyl(Ac)3 β1→6Gal(Ac)3 -0-2-naphthol.
Priming of glycosaminoglycan chains was measured in pgsA-745 cells deficient in xylosyltransfersase. The cells were grown to confluence in 96-well microtiter plates (Falcon). Fresh medium (0.2 ml) containing 50 μCi/ml of H2^35 SO4 (25-40 Ci/mg) and the test compounds were added to the wells. The top row of wells contained […] of glycoside and each subsequent row contained a serial dilution (1:3^n, v/v). Cells were incubated for 5 hours at 37° C. and solubilized by adding 20 μl of 0.5M NaOH. The individual wells were adjusted to 0.2% (w/v) Zwittergent 3-12, 25 μg/ml chondroitin sulfate, 0.2M acetic acid and 10 mM Na2 SO4. The samples were transferred to a GeneScreen Plus membrane (Dupont-NEN) placed on top of a piece of 1Chr paper on a vacuum Minifold (Schleicher & Schuell). A wash solution of 0.2% (w/v) Zwittergent 3-12, 0.2M acetic acid and 10 mM Na2 SO4 (0.5 ml) was passed through each well. The membranes were removed from the Minifold, soaked for 5 minutes in 20 ml of wash solution, air-dried and exposed to RX X-ray film for 10-18 hours.
Therefore, uptake of the disaccharide was measured indirectly by the determining the incorporation of ^35 SO4 into glycosaminoglycan chains. To distinguish glycosaminoglycans produced on the glycoside from those made on endogenous proteoglycans, a Chinese hamster ovary cell mutant deficient in xylosyltransferase was made. […] [^35 S]glycosaminoglycan synthesis was measured by incubating mutant cells in a 96 well plate with glycoside derivatives at different doses. The cells and spent media were then transferred to a positively charged nylon membrane to detect newly made chains by autoradiography.

[4] = tested on: Chinese hamster ovary cells; assay: Uptake of glycosides by Chinese hamster ovary cells, fluorescence assay
Description: Confluent monolayers of Chinese hamster ovary cells were incubated with the indicated concentrations of Xylβ-0-2-naphthol at 37° C. for 30 minutes. The amount of glycoside taken up was determined by fluorescence assay.
The various glycosides were added (100 μM) to confluent Chinese hamster ovary cell monolayers and at the times indicated, the amount of glycoside taken up was quantitated by fluorescence assay. Filled circles: Xylβ-0-2-naphthol; filled square: Galβ-0-2-naphthol; unfilled triangle: Galβ1→4Xylβ-0-2-naphthol; filled triangle: Galβ1 →3Galβ0-2-naphthol.
Compounds were dissolved in DMSO and added to growth medium such that the final concentration of vehicle was 0.5% (v/v). Confluent cells were incubated with supplemented growth medium at 37° C. for various times. The cultures were placed on ice, the medium was aspirated and the cells were washed three times with cold PBS containing 1 mg/ml of bovine serum albumin. Cells were solubilized in a small volume of 0.1M NaOH and the extracts were neutralized with one mole equivalent of acetic acid. After centrifuging the samples, the supernatants were applied to Sep-Pak Plus C18 cartridges (Waters Associates) and washed with water (10 ml) and 20% (v/v) methanol in water (5 ml). Bound material was eluted with 5 ml of 40% (v/v) methanol in water and concentrated to dryness. The residue was dissolved in methanol and its fluoresence was measured (SLM-Aminco Instruments). The excitation and emission wavelengths for 2-naphthol derivatives were 293 nm and 395 nm, respectively. Phenanthrol derivatives were excited at 310 nm and the emission was measured at 365 nm.
Animal cells take up β-D-xylosides and prime glycosaminoglycan chains with great efficiency. For priming to occur, the glycoside must pass though the plasma membrane and enter the Golgi where the glycosyltransferases reside. […] Xylβ-0-2-naphthol has three hydroxyl groups, whereas Gal-0-2-naphtholhas four.

F9 cells = assay: Uptake of disaccharides by F9 cells, fluorescence assay; format: in vitro ADME, mouse; conditions: Table I, control value without glycoside (1.0) subtracted
[5] = tested on: basic fibroblast growth factor; conditions: background; cited from earlier work

CC(=O)NC1C(OCc2ccccc2)OC(CO)C(O)C1O (centres unmarked) [GalNAcα-0-Bn, GalNAc-O-benzyl]
Expression of sLe^x ligands and adhesion to activated endothelial cells (in words) [1]: inhibits the expression of sialyl Lewis X (sLe^x) ligands and adhesion to activated endothelial cells | Effect on mucin oligosaccharide / O-linked glycoprotein synthesis (in words) [2]: stimulates mucin oligosaccharide synthesis and inhibits O-linked glycoprotein synthesis

O[C@@H]1[C@@H](O)[C@H](Oc2ccc3ccccc3c2)OC[C@H]1O [Xylβ-0-2-naphthol]
Priming of glycosaminoglycan chains (in words) [3]: primed chains efficiently | Uptake (in words) ([4]; CHO cells, 37° C., FIG. 1 and 2 (100 μM in FIG. 2)): diffuse more readily than hexosides; also recorded: occurs by diffusion; also recorded: depended on concentration and did not saturate | Time for uptake to reach a plateau ([4]; FIG. 2, 100 μM): less than one minute | Uptake ([4]; relative to Xylβ-0-2-naphthol 1.0 unit): 1.0 unit of fluorescence | Uptake (F9 cells): 9.0 Arbitray units | Binding of primed heparan sulfate chains to basic fibroblast growth factor (in words) [5]: will bind to basic fibroblast growth factor
